These results are taken from patent publication US20120022045A1, “BRIDGED COMPOUNDS AS HIV INTEGRASE INHIBITORS” (priority 2009, published 2012).

Like-named read-outs stand apart in the source and are kept apart here.

Common to all, as to type: cell-based
The subject of one experiment is HIV-1 wild type IIIB. Briefly: Single cycle infectivity assay in HeLa P4-2 cells, wild type virus. As for the experimental part:
(§1) An assay for measuring the inhibition of acute HIV-1 infection with HeLa P4-2 cells in a single cycle infectivity assay was conducted using methods described in Joyce et al., J. Biol. Chem. 2002, 277: 45811, Hazuda et al., Science 2000, 287: 646, and Kimpton et al, J. Virol. 1992, 66: 2232. Proviral plasmids encoding viruses containing specific mutations in the integrase gene (N155H, Q148R, Y143R, E92Q, or G140S/Q148H) were generated by site-directed mutagenesis, and viruses were produced by transfecting 293T cells with the appropriate proviral plasmids.

A further experiment has as its system HIV-1. Briefly: Inhibition of acute HIV-1 infection of T-lymphoid cells (spread assay). Particulars: 10% FBS, read-out: IC95 (nM) in the presence of 10% FBS. As for the experimental part: Assays for the inhibition of acute HIV-1 infection of T-lymphoid cells were conducted in accordance with Vacca, J. P. et al., Proc. Natl. Acad. Sci. USA 1994, 91: 4096.
Experiment [1] relates to HIV-1 integrase mutant virus Q148R. Briefly: Single cycle infectivity assay in HeLa P4-2 cells, integrase mutant Q148R virus. The note with it: fold shift in IC50 versus wild type IIIB. The method, then:
as §1

Experiment [2] relates to HIV-1 integrase mutant virus G140S/Q148H. In words: Single cycle infectivity assay in HeLa P4-2 cells, integrase mutant G140S/Q148H virus. The note with it: fold shift in IC50 versus wild type IIIB. As for the experimental part: as §1
Experiment [3] has as its system HIV-1 integrase mutant virus Y143R. In words: Single cycle infectivity assay in HeLa P4-2 cells, integrase mutant Y143R virus. Particulars: fold shift in IC50 versus wild type IIIB. As for the experimental part:
as §1

Experiment [4] has as its system HIV-1 integrase mutant virus N155H. Briefly: Single cycle infectivity assay in HeLa P4-2 cells, integrase mutant N155H virus. Particulars: fold shift in IC50 versus wild type IIIB. As for the experimental part: as §1
Setting [5] is: Human immunodeficiency virus 1, IIIB, HeLaP4-2, wild type IIIB.
Where [6] appears, read: Human immunodeficiency virus 1, T-lymphoid.

As usually defined, the IC50 is the concentration needed to halve the response being measured. A high value points to weaker potency in that assay. What is called IC95 is the concentration needed for an effect of 95%. For `CCN(C(=O)C(=O)N(C)C)C12CCC(Cn3c1nc(C(=O)NCc1ccc(F)c(C)c1)c(O)c3=O)OC2` (single isomer, unassigned) [Example 18B, N-ethyl-N-(4-{[(4-fluoro-3-methylbenzyl)amino]carbonyl}-5-hydroxy-6-oxo-10-oxa-3,7-diazatricyclo[7.2.2.0^2,7]trideca-2,4-dien-1-yl)-N,N-dimethylethanediamide], it took 0.01 µM to reach half-maximal inhibition in the experiment with HIV-1 wild type IIIB (setting [5]) (IC50). Further, the IC95 in the experiment with HIV-1 (setting [6]) came to 10.7 nM. In addition, in experiment [1], the “Q148R (shift)” value amounted to 2 fold. In addition, the “G140S/Q148H (shift)” value in experiment [2] came to 19 fold. For the same compound, the “Y143R (shift)” value in experiment [3] came to 2 fold. In addition, in experiment [4], the “N155H (shift)” value was 2 fold.

`CCC12CCC(N(C)C(=O)C(=O)N(C)C)(CO1)c1nc(C(=O)NCc3ccc(F)cc3)c(O)c(=O)n1C2` (single isomer, unassigned) [Example 20A, N-(9-ethyl-4-{[(4-fluorolbenzyl)amino]carbonyl}-5-hydroxy-6-oxo-10-oxa-3,7-diazatricyclo[7.2.2.0^2,7]trideca-2,4-dien-1-yl)-N,N′,N′-trimethylethanediamide]: 0.008 µM corresponded to half-maximal inhibition in the experiment on HIV-1 wild type IIIB (wild type IIIB) (IC50). Moreover, the IC95 in the experiment on HIV-1 (setting [6]) was determined as 11 nM. Moreover, the “Q148R (shift)” value in experiment [1] amounted to 2 fold. Further, the “G140S/Q148H (shift)” value in experiment [2] was 21 fold. Moreover, in experiment [3], the “Y143R (shift)” value was determined as 1 fold. Besides, in experiment [4], the “N155H (shift)” value is given as 3 fold.

Compound `CCC12CCC(N(C)C(=O)C(=O)N(C)C)(CO1)c1nc(C(=O)NCc3ccc(F)cc3)c(O)c(=O)n1C2` (single isomer, unassigned) [Example 20B, N-(9-ethyl-4-{[(4-fluorolbenzyl)amino]carbonyl}-5-hydroxy-6-oxo-10-oxa-3,7-diazatricyclo[7.2.2.0^2,7]trideca-2,4-dien-1-yl)-N,N′,N′-trimethylethanediamide] came in with an IC50 in the experiment with HIV-1 wild type IIIB (wild type IIIB) of 0.017 µM. Further, the IC95 in the experiment on HIV-1 was 16.7 nM. For the same compound, the “Q148R (shift)” value in experiment [1] stood at 11 fold. For the same compound, the “G140S/Q148H (shift)” value in experiment [2] came to 102 fold. For the same compound, the “Y143R (shift)” value in experiment [3] turned out to be 1 fold. Besides, in experiment [4], the “N155H (shift)” value is recorded as 7 fold.

In turn, `CN(C)C(=O)C(=O)N(C)C12CCC(C)(Cn3c1nc(C(=O)NCc1ccc(F)cc1)c(O)c3=O)OC2` (single isomer, unassigned) [Example 21A] had an IC50 with HIV-1 wild type IIIB (setting [5]) of 0.02 µM. In addition, the IC95 in the experiment on HIV-1 (setting [6]) is 20 nM. Also, the “Q148R (shift)” value in experiment [1] is 3 fold. Moreover, the “G140S/Q148H (shift)” value in experiment [2] stood at 73 fold. Further, the “Y143R (shift)” value in experiment [3] is given as 1 fold. Further, the “N155H (shift)” value in experiment [4] is given as 3 fold.

With `CN(C)C(=O)C(=O)N(C)C12CCC(C)(Cn3c1nc(C(=O)NCc1ccc(F)cc1)c(O)c3=O)OC2` (single isomer, unassigned) [Example 21B], the IC50 with HIV-1 wild type IIIB (wild type IIIB) turned out to be 0.018 µM. In addition, the IC95 in the experiment with HIV-1 is recorded as 21.0 nM. The “Q148R (shift)” value in experiment [1] stood at 11 fold. Also, in experiment [2], the “G140S/Q148H (shift)” value is listed as above 93 fold. The “Y143R (shift)” value in experiment [3] was found to be 3 fold. In addition, in experiment [4], the “N155H (shift)” value is recorded as 13 fold.

`CCC12CCC(NC(=O)C(=O)N(C)C)(CO1)c1nc(C(=O)NCc3ccc(F)cc3)c(O)c(=O)n1C2` (single isomer, unassigned) [Example 22A, N′-(9-ethyl-4-{[(4-fluorolbenzyl)amino]carbonyl}-5-hydroxy-6-oxo-10-oxa-3,7-diazatricyclo[7.2.2.0^2,7]trideca-2,4-dien-1-yl)-N,N-dimethylethanediamide] had an IC50 in the experiment on HIV-1 wild type IIIB (wild type IIIB) of 0.007 µM. Besides, the IC95 in the experiment on HIV-1 (setting [6]) came out at 12.7 nM. For the same compound, the “Q148R (shift)” value in experiment [1] stood at 24 fold. Besides, in experiment [2], the “G140S/Q148H (shift)” value was 198 fold. The “Y143R (shift)” value in experiment [3] amounted to 5 fold. Moreover, the “N155H (shift)” value in experiment [4] is 23 fold.

In turn, `CCC12CCC(NC(=O)C(=O)N(C)C)(CO1)c1nc(C(=O)NCc3ccc(F)cc3)c(O)c(=O)n1C2` (single isomer, unassigned) [Example 22B, N′-(9-ethyl-4-{[(4-fluorolbenzyl)amino]carbonyl}-5-hydroxy-6-oxo-10-oxa-3,7-diazatricyclo[7.2.2.0^2,7]trideca-2,4-dien-1-yl)-N,N-dimethylethanediamide] displayed an IC50 in the experiment with HIV-1 wild type IIIB (wild type IIIB) of 0.019 µM. The IC95 in the experiment on HIV-1 was 12.6 nM. Also, the “Q148R (shift)” value in experiment [1] is on record as 3 fold. Further, the “G140S/Q148H (shift)” value in experiment [2] was determined as 10 fold. For the same compound, in experiment [3], the “Y143R (shift)” value came to 1 fold. Moreover, the “N155H (shift)” value in experiment [4] is listed as 3 fold.

Take `CN(C)C(=O)C(=O)N(C)C12CCC(Cn3c1nc(C(=O)NCc1ccc(F)cc1)c(O)c3=O)OC2` (single isomer, unassigned) [Example 23A]: the IC50 in the experiment with HIV-1 wild type IIIB (wild type IIIB) worked out at 0.021 µM. Further, the IC95 in the experiment with HIV-1 came to 16.7 nM. The “Q148R (shift)” value in experiment [1] stood at 6 fold. The “G140S/Q148H (shift)” value in experiment [2] worked out at 84 fold. Besides, in experiment [3], the “Y143R (shift)” value came out at 1 fold. Further, in experiment [4], the “N155H (shift)” value turned out to be 7 fold.

Consider `CN(C)C(=O)C(=O)N(C)C12CCC(Cn3c1nc(C(=O)NCc1ccc(F)cc1)c(O)c3=O)OC2` (single isomer, unassigned) [Example 23B], for which the IC50 in the experiment on HIV-1 wild type IIIB (wild type IIIB) is 0.005 µM. Besides, the IC95 with HIV-1 is reported as 23.6 nM. The “Q148R (shift)” value in experiment [1] worked out at 253 fold. Besides, the “G140S/Q148H (shift)” value in experiment [2] was determined as 229 fold. In experiment [3], the “Y143R (shift)” value was 7 fold. In addition, in experiment [4], the “N155H (shift)” value came out at 136 fold.

On to `CN(C)C(=O)C(=O)N(C)C12CCC(CC1)Cn1c2nc(C(=O)NCc2ccc(F)cc2)c(O)c1=O` (single isomer, unassigned) [Example 24A], for which the IC50 with HIV-1 wild type IIIB (setting [5]) is 0.015 µM. Further, in the experiment with HIV-1 (setting [6]), the IC95 came out at 11.7 nM. Further, in experiment [1], the “Q148R (shift)” value amounted to 5 fold. In addition, the “G140S/Q148H (shift)” value in experiment [2] is reported as above 111 fold. Also, the “Y143R (shift)” value in experiment [3] was determined as 1 fold. For the same compound, the “N155H (shift)” value in experiment [4] came out at 4 fold.

For `CCC1C2CCC(N(C)C(=O)C(=O)N(C)C)(CO2)c2nc(C(=O)NCc3ccc(F)cc3)c(O)c(=O)n21` (single isomer, unassigned) [Example 25A, N-(8-ethyl-4-{[(4-fluorobenzyl)amino]carbonyl}-5-hydroxy-6-oxo-10-oxa-3,7-diazatricyclo[7.2.2.0^2,7]trideca-2,4-dien-1-yl)-N,N′,N′-trimethylethanediamide], the IC50 with HIV-1 wild type IIIB (wild type IIIB) was 0.014 µM. Moreover, the IC95 in the experiment on HIV-1 (setting [6]) is 6.3 nM. Also, the “Q148R (shift)” value in experiment [1] is given as 1 fold. Further, the “G140S/Q148H (shift)” value in experiment [2] is given as 1 fold. Also, the “Y143R (shift)” value in experiment [3] is on record as 7 fold. Further, the “N155H (shift)” value in experiment [4] is 1 fold.

With `CNC(=O)C(=O)N(C)C12CCC(OC1)C(C)n1c2nc(C(=O)NCc2ccc(F)cc2)c(O)c1=O` (single isomer, unassigned) [Example 28B, N-(4-{[(4-fluorobenzyl)amino]carbonyl}-5-hydroxy-8-methyl-6-oxo-10-oxa-3,7-diazatricyclo[7.2.2.0^2,7]trideca-2,4-dien-1-yl)-N,N′-dimethylethanediamide], the IC95 with HIV-1 is listed as 15.9 nM.

On to `CC1C2CCC(NC(=O)C(=O)N(C)C)(CO2)c2nc(C(=O)NCc3ccc(F)cc3)c(O)c(=O)n21` (single isomer, unassigned) [Example 29B, N′-(4-{[(4-Fluorobenzyl)amino]carbonyl}-5-hydroxy-8-methyl-6-oxo-10-oxa-3,7-diazatricyclo[7.2.2.0^2,7]trideca-2,4-dien-1-yl)-N-dimethylethanediamide], for which the IC50 in the experiment on HIV-1 wild type IIIB (wild type IIIB) came out at 0.069 µM. For the same compound, the “Q148R (shift)” value in experiment [1] was found to be 3 fold. Further, the “G140S/Q148H (shift)” value in experiment [2] was 2 fold. Further, the “Y143R (shift)” value in experiment [3] came to 2 fold. Moreover, the “N155H (shift)” value in experiment [4] came to 1 fold.

The compound `Cc1nnc(C(=O)NC(C)(C)c2nc(C(=O)NCc3ccc(F)cc3)c(O)c(=O)n2C)o1` [Compound X, raltegravir, reference compound] had an IC50 with HIV-1 wild type IIIB (setting [5]) of 0.052 µM. Also, the “Q148R (shift)” value in experiment [1] came out at 22 fold. Also, the “G140S/Q148H (shift)” value in experiment [2] amounted to 400 fold. Also, the “Y143R (shift)” value in experiment [3] is recorded as 15 fold. Also, in experiment [4], the “N155H (shift)” value came to 13 fold.

With `CN(C)C(=O)C(=O)N(C)C1CCCCn2c1nc(C(=O)NCc1ccc(F)cc1)c(O)c2=O` (stereo not drawn) [Compound Y, (—)N-(2-{[(4-fluorobenzyl)amino]-carbonyl}-3-hydroxy-4-oxo-4,6,7,8,9,10-hexahydropyrimido[1,2-a]azepin-10-yl)-N,N′,N′-trimethylethanediamide, reference compound], inhibition with HIV-1 wild type IIIB (setting [5]) was half-maximal at 0.016 µM (IC50). Moreover, the “Q148R (shift)” value in experiment [1] worked out at 26 fold. For the same compound, the “G140S/Q148H (shift)” value in experiment [2] amounted to 410 fold. Further, the “Y143R (shift)” value in experiment [3] is 1 fold. Besides, in experiment [4], the “N155H (shift)” value came out at 15 fold.

`CC1(C)OCCn2c1nc(C(=O)NCc1ccc(F)cc1)c(O)c2=O` [Compound Z, N-[(4-fluorophenyl)methyl]-3-hydroxy-9,9-dimethyl-4-oxo-4,6,7,9-tetrahydro-6H-pyrimido[2,1-c][1,4]oxazine-2-carboxamide, reference compound]: inhibition in the experiment with HIV-1 wild type IIIB (wild type IIIB) was half-maximal at 0.034 µM (IC50). Also, the “Q148R (shift)” value in experiment [1] is given as above 34 fold. The “G140S/Q148H (shift)” value in experiment [2] is given as above 34 fold. In experiment [3], the “Y143R (shift)” value amounted to 1 fold. Besides, the “N155H (shift)” value in experiment [4] is 32 fold.
